Reference: US11389539B2, “Hyaluronic acid derivatives into which cationic and hydrophobic groups are introduced” (CHUGAI SEIYAKU KABUSHIKI KAISHA, priority 2016, dated 2022)

What was measured:
[1] = Assessment of intraocular migration of eye drops (fluorescent-labeled HA derivative, confocal microscope); format: in vivo; conditions: mice, 3 μL eye drops to both eyes, 1 hour, frozen sections
Description: The 10k-HA-Chol-17%/ArgNH2-10%/EtOH-67%/FL synthesized in Example 2-26 was dissolved in 10% sucrose solution to a concentration of 50 mg/mL, and 3 μL of the resulting solution was applied to both eyes of mice. Both eyeballs were taken out after 1 hour and frozen sections were prepared. […] On the other hand, carboxyfluorescein was dissolved in 10% sucrose solution to a concentration of 0.0568 mg/mL, 3 μL of the resulting solution was applied to both eyes of mice, and an observation was performed as in the case of the 10k-HA-Chol-17%/ArgNH2-10%/EtOH-67%/FL. As a result, fluorescence from carboxyfluorescein was not observed in any tissues of the eyes including the cornea, conjunctiva and ciliary body.

ApoB mRNA = assay: Suppression of gene expression by HA derivatives containing nucleic acid (transfection of HepG2 cells, quantitative real-time PCR); format: cell-based, Human; conditions: siRNA 200 nM, 24 hours
Description: ApoB (sense strand: [NT] ID No. 1, number of nucleotides: 21), antisense strand: 3'-[…] ID No. 2, number of nucleotides: 23)) was used as siRNA. First, an aqueous solution of 0.5 mg/mL siRNA and 0.1-M Hepes buffer were mixed, to which 6 mg/mL aqueous solutions of the HA derivatives obtained in Examples 2 and 4 were added to an N/P ratio of 10 or 20 and was pipetted to prepare agents containing nucleic acid (the final concentration of siRNA was 800 nM and the final concentration of Hepes was 10 mM). In order to assess suppression effects of the HA derivatives containing nucleic acid obtained in Example 8-1 on gene expression, a transfection experiment was performed to HepG2 cells. The sucrose solutions containing the HA derivatives containing nucleic acid were added to a 96-well plate. HepG2 cells suspended in DMEM supplemented with 10% FBS was added to 1×10^4 cells/well and cultured for 24 hours. The final concentration of siRNA in transfection was 200 nM. Total RNA was extracted and purified according to the manual using a QIAGEN RNeasy 96 kit. By using the RNA-to-Ct 1 Step kit manufactured by Thermo Fisher Scientific, quantitative real-time PCR was performed on the target ApoB mRNA and GAPDH mRNA as the housekeeping gene using the following primers according to the instruction manual. For the quantitative real-time PCR, Rotor-Gene Q manufactured by QIAGEN was used. […]

| Substance | distribution in the conjunctiva and the ciliary body by fluorescence detection [1] | distribution in the cornea by fluorescence detection [1] | expression of ApoB (ApoB mRNA) |
| --- | --- | --- | --- |
| carboxyfluorescein | not observed | not observed |  |
| siRNA alone: ApoB siRNA, sense strand SEQ ID No. 1 (21 nucleotides), antisense strand SEQ ID No. 2 (23 nucleotides) (sense GUCAUCACACUGAAUACCAAU; antisense AUUGGUAUUCAGUGUGAUGACAC; listed as RNA, chemistry not given here) |  |  | does not have an effect of suppressing gene expression |
